PMC3665241, “Scaffold-Focused Virtual Screening: Prospective Application to the Discovery of TTK Inhibitors” (Journal of Chemical Information and Modeling, 2013)

What was measured:
[1] = target: T1, GST-tagged recombinant human full-length TTK protein kinase (Homo sapiens, UniProt P33981); experiment: TTK mobility shift microfluidics assay, IC50 determination (3 nM TTK); format: biochemical; details: for IC50: 3 nM TTK, 10 μM ATP, duplicate on the same plate; for LE (ligand efficiency): from TTK IC50
T1 construct: GST-tagged recombinant human full-length TTK protein kinase; purchased Invitrogen (Life Technologies Ltd., Paisley, U.K.)
T1 sequence (P33981 1-857): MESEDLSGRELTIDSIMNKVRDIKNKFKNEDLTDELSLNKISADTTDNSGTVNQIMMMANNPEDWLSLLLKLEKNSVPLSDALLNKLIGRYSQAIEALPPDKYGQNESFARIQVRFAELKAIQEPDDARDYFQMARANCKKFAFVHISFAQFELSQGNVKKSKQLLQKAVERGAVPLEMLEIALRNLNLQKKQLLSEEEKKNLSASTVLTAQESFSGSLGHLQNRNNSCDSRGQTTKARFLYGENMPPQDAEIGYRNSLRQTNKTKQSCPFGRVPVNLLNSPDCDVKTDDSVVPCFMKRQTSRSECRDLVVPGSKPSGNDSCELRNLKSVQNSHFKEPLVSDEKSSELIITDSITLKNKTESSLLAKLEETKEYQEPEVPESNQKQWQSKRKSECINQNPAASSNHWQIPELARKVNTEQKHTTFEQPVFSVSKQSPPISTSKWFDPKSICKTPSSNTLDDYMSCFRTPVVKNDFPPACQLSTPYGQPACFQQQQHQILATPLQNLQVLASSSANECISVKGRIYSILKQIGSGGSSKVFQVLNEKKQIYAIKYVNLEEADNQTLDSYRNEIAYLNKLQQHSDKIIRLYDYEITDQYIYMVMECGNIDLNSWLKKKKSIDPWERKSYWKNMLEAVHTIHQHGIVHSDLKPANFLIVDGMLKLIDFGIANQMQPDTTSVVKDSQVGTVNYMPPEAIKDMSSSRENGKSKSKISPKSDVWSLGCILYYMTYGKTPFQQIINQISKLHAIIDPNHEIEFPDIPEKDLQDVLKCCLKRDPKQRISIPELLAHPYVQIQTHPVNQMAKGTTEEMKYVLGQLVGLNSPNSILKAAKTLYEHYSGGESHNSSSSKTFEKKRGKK

[2] = target: T1, GST-tagged recombinant human full-length TTK protein kinase; experiment: TTK mobility shift microfluidics assay, single-concentration percent inhibition screen; format: biochemical; details: 12.5 nM TTK, 10 μM ATP, mean of duplicate ± SD; for inhibition at 40 µM: compound at 40 μM, 1% DMSO; for inhibition at 400 µM: compound at 400 μM (fragment-like, MW < 300 Da)
Procedure: The TTK kinase activity was measured in a mobility shift microfluidics assay with the Caliper LabChip EZReader II (Caliper Life Sciences, Hopkinton, MA, U.S.A.). For the initial percent inhibition compound screen, all compounds were tested at 40 μM, and fragment-like compounds (MW < 300 Da) were also tested at 400 μM. A 2.14 μM stock of GST-tagged recombinant human full-length TTK protein kinase from Invitrogen (Invitrogen, Life Technologies Ltd., Paisley, U.K.) and custom synthesized peptide from Pepceuticals (Pepceuticals Ltd., Enderby, U.K.) with sequence 5-FAM-[…]-amide were used. […] For every 10 mL of stock buffer, one Roche EDTA free complete mini-protease inhibitor cocktail tablet (Roche, Basel, Switzerland) was added. TTK was used at a final concentration of 12.5 nM. The assay plate was sealed and incubated at room temperature for 60 min. The assay was stopped by addition of stop buffer which contained 100 mM HEPES (pH 7.3), 20 mM EDTA, and 0.05% (v/v) Brij-35. The assay plate was then analyzed using the EZReader II. Z′ for compounds at 40 μM was 0.48, and Z′ for compounds at 400 μM was 0.61.

[3] = target: T2, TTK kinase domain (residues 519–808) (Homo sapiens, UniProt P33981); experiment: Soaking of apo TTK kinase domain crystals with inhibitor, X-ray crystallography; format: binding; details: crystals soaked with 10–50 mM compound for 24 h
T2 construct: TTK kinase domain (residues 519–808); inferred from Ni-NTA purification with imidazole elution; made in house; host or cells: E. coli BL21 AI
T2 sequence (P33981 519-808): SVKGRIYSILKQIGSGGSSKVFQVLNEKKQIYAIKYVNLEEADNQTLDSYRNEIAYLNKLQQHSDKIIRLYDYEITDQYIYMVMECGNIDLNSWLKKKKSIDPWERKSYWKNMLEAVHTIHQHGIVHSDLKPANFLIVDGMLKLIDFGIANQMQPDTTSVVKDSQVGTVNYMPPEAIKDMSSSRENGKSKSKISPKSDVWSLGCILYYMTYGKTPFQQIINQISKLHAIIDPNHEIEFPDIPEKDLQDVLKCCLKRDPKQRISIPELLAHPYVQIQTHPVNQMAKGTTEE
From the text: In recognition of the desirability of protein–ligand crystal structures to educate the efficient follow-up of fragment-like hit matter and our wish to determine the mode of binding of hits identified with the scaffold-focused virtual screen, we sought co-crystal structures of confirmed hits with TTK. To this end, apo crystals of TTK kinase domain were soaked in buffer solution containing the respective inhibitor (2–9). X-ray data were collected for all crystals, and the structures were solved using molecular replacement. We successfully obtained co-crystal structures of TTK with fragment-like hit compounds 3, 4, 5, and 7. […] A summary of crystallographic analysis is presented in Table 4, and the binding modes of compounds 3, 4, 5, and 7 are illustrated in Figure 7 with Fo–Fc electron density omit maps surrounding the ligand shown in green wire-mesh contoured at 3σ. In all four structures, the activation loop of TTK is disordered, possibly due to the presence of a PEG molecule bound to Lys553, a residue which would usually coordinate with Glu571 to help stabilize the activation loop (Lys553 is not shown in Figure 7 for clarity).
TTK was purified and crystallized as described previously.[26] Plasmids for expression of TTK were received from Stefan Knapp, Structural Genomics Consortium, Oxford, U.K. TTK kinase domain (residues 519–808) was expressed in E. coli BL21 AI competent cells (Invitrogen, Life Technologies Ltd., Paisley, U.K.). Cells were cultured in LB media containing kanamycin selection antibiotic and induced with 0.5 mM IPTG and 1g/L L-arabinose at an OD280 of 0.7. Cells were then incubated overnight at 18 °C with shaking at 225 rpm. Cells were harvested and resuspended in lysis buffer containing 50 mM HEPES pH 7.5, 500 mM NaCl, 10 mM imidazole, 5% (v/v) glycerol, lysozyme, and 1 Roche EDTA free complete protease inhibitor cocktail tablet (Roche, Basel, Switzerland) per 3 L of buffer. TTK was purified using Ni–NTA nickel affinity resin and washed in buffer containing 30 mM imidazole. TTK was then eluted from the resin with 250 mM imidazole. Eluate was concentrated using a Vivaspin concentrator with a 30 kDa molecular weight cutoff (GE Healthcare, Chalfont St. Giles, U.K.) and further purified on gel filtration column Superdex 200 16/60 (GE Healthcare, Chalfont St. Giles, U.K.) equilibrated in buffer containing 10 mM HEPES pH 7.5, 150 mM NaCl, 5 mM DTT, and 5 mM EDTA. The sample was concentrated to a final concentration of 8.9 mg/mL, snap frozen on dry ice, and stored at −80 °C until required.
Purified TTK was crystallized at 18 °C using the sitting drop vapor diffusion method with drops composed of 2 μL protein (8.9 mg/mL) and 2 μL reservoir solution placed over 200 μL reservoir solution of H2O/PEG300 (30–45% (v/v)) in 48 well plates. […]

## COc1ccc(Nc2ncnc3sc(-c4ccccc4)cc23)cc1OC [Compound 11]
[1]; 1% DMSO
  IC50: 2.1 µM
[1]
  LE (ligand efficiency): 0.30
[2]
  inhibition at 40 µM: 64 ± 1.41%

## c1ccc2c(c1)[nH]c1cncnc12 [Compound 4, 5H-pyrimido[5,4-b]indole]
[1]
  LE (ligand efficiency): 0.44
[2]
  inhibition at 40 µM: 42.5 ± 0.71%
  inhibition at 400 µM: 63 ± 2.83%

## N#Cc1ccccc1NC(=O)Cn1ncc2c1-c1ccccc1OC2 [Compound 10]
[2]
  inhibition at 40 µM: 53.5 ± 0.71%

## COc1ccc(Nc2nc(N)nc3nc[nH]c23)cc1OC [Compound 13]
[1]; 1% DMSO
  IC50: 7.7 µM
[1]
  LE (ligand efficiency): 0.33
[2]
  inhibition at 40 µM: 72 ± 1.41%
  inhibition at 400 µM: 86 ± 0.41%

## COc1ccc(Nc2ncnc3[nH]ncc23)cc1OC [Compound 17]
[1]; 1% DMSO
  IC50: 33.3 µM
[1]
  LE (ligand efficiency): 0.31
[2]
  inhibition at 40 µM: 69%
  inhibition at 400 µM: 67%

## COc1ccc(Nc2ncnc3nc[nH]c23)cc1OC [Compound 18]
[1]; 1% DMSO
  IC50: 40.9 µM
[1]
  LE (ligand efficiency): 0.30
[2]
  inhibition at 40 µM: 34 ± 2.83%
  inhibition at 400 µM: 67 ± 0.41%

## Cc1ccc2[nH]c3c(N4CCCCC4)ncnc3c2c1 [Compound 9]
[3]
  binding in ATP binding site of soaked TTK crystals (electron density): not bound
[1]; 10% DMSO (asterisk)
  IC50: 246 µM
[1]
  LE (ligand efficiency): 0.25
[2]
  inhibition at 40 µM: 68 ± 1.41%
  inhibition at 400 µM: 55.5 ± 2.12%

## c1cc2cnc3ccsc3c2cn1 [Compound 5, thieno[3,2-c][2,6]naphthyridine]
[1]
  LE (ligand efficiency): 0.44
[2]
  inhibition at 40 µM: 46 ± 1.41%
  inhibition at 400 µM: 65 ± 2.83%

## COc1ccc2c(c1)[nH]c1c(C)nccc12 [Compound 8, harmine]
[3]
  binding in ATP binding site of soaked TTK crystals (electron density): not bound
[1]; 1% DMSO
  IC50: 160 µM
[1]
  LE (ligand efficiency): 0.32
[2]
  inhibition at 40 µM: 19%
  inhibition at 400 µM: 65 ± 1.41%

## COc1ccc(Nc2cc(C)nc(SC)n2)cc1OC [Compound 15]
[1]; 1% DMSO
  IC50: 19.6 µM
[1]
  LE (ligand efficiency): 0.32
[2]
  inhibition at 40 µM: 57.5 ± 2.12%
  inhibition at 400 µM: 75.5 ± 0.71%

## Nc1nnc2c([nH]c3ccccc32)c1-c1ccccc1 [Compound 2]
[3]
  binding in ATP binding site of soaked TTK crystals (electron density): not bound
[1]; 1% DMSO
  IC50: 53 µM
[1]
  LE (ligand efficiency): 0.29
[2]
  inhibition at 40 µM: 52 ± 1.41%
  inhibition at 400 µM: 56 ± 1.41%

## c1cc2cnc3sccc3c2cn1 [Compound 3, Thieno[2,3-c][2,6]naphthyridine]
[1]
  LE (ligand efficiency): 0.45
[2]
  inhibition at 40 µM: 70%
  inhibition at 400 µM: 105.5 ± 0.71%

## COc1ccc(Nc2nc(Nc3ccc(OC)c(OC)c3)c3[nH]cnc3n2)cc1OC [Compound 22]
[1]; 1% DMSO
  IC50: < 0.025 µM
[2]
  inhibition at 40 µM: 71.5 ± 2.12%

## COc1ccc(Nc2cc(-c3ccccc3)ncn2)cc1OC [Compound 14]
[1]; 1% DMSO
  IC50: 9.9 µM
[1]
  LE (ligand efficiency): 0.30
[2]
  inhibition at 40 µM: 68.5 ± 0.71%

## COc1ccc(C(=O)c2oc3cc(NC(C)=O)ccc3c2C)cc1OC [Compound 12]
[1]; 1% DMSO
  IC50: 4.2 µM
[1]
  LE (ligand efficiency): 0.28
[2]
  inhibition at 40 µM: 68.5 ± 2.12%

## COc1ccc(Nc2ccc3nnnn3n2)cc1OC [Compound 20]
[1]; 10% DMSO (asterisk)
  IC50: 78.6 µM
[1]
  LE (ligand efficiency): 0.28
[2]
  inhibition at 40 µM: 71.5 ± 0.71%
  inhibition at 400 µM: 24.5 ± 2.12%

## COc1ccc(NC(=O)c2nc[nH]n2)cc1OC [Compound 23]
[1]; 1% DMSO
  IC50: > 1000 µM
[2]
  inhibition at 40 µM: 23 ± 4.24%
  inhibition at 400 µM: 51 ± 1.41%

## COc1ccc(Nc2cc(C)nc3ncnn23)cc1OC [Compound 24]
[1]; 1% DMSO
  IC50: > 1000 µM
[2]
  inhibition at 40 µM: 52%
  inhibition at 400 µM: 34.5 ± 0.71%

## COc1ccc(Nc2ncnc3c2cnn3C)cc1OC [Compound 16]
[1]; 1% DMSO
  IC50: 19.3 µM
[1]
  LE (ligand efficiency): 0.31
[2]
  inhibition at 40 µM: 45.5 ± 2.12%
  inhibition at 400 µM: 82.5 ± 0.71%

## COc1ccc(Nc2ccc3nnc(C(F)(F)F)n3n2)cc1OC [Compound 21]
[1]; 10% DMSO (asterisk)
  IC50: 90.1 µM
[1]
  LE (ligand efficiency): 0.23
[2]
  inhibition at 40 µM: 59 ± 2.83%

## c1cc2c(cn1)cnc1sccc12 [Compound 7, thieno[2,3-c][2,7]naphthyridine]
[1]
  LE (ligand efficiency): 0.42
[2]
  inhibition at 40 µM: 51 ± 1.41%
  inhibition at 400 µM: 94.5 ± 2.12%

## COc1ccc(Nc2cc(Cl)nc(N)n2)cc1OC [Compound 19]
[1]; 1% DMSO
  IC50: 56.2 µM
[1]
  LE (ligand efficiency): 0.30
[2]
  inhibition at 40 µM: 65.5 ± 0.71%
  inhibition at 400 µM: 96.5 ± 0.71%
